Patent US9434725B2, “5-azaindazole compounds and methods of use” (priority 2012, dated 2016)

Experiments:
Type in all cases: biochemical
PIM1 = PIM1 (Homo sapiens (Human), UniProt P11309); assay: biochemical; conditions: 10 μM ATP, 90 min, room temperature; read-out: PIM1 LC3K (KI)
Experimental: A fluorescent-labeled Pim-specific peptide substrate, was custom synthesized by American Peptide Company (Sunnyvale, Calif.). Reaction Buffer contained 10 mM HEPES, pH 7.2, 10 mM MgCl2, 0.01% Tween 20, 2 mM DTT. Termination Buffer contained 190 mM HEPES, pH 7.2, 0.015% Brij-35, 0.2% Coating Reagent 3 (Caliper Life Sciences, Hopkinton, Mass.), 20 mM EDTA. Separation Buffer contained 100 mM HEPES, pH 7.2, 0.015% Brij-35, 0.1% Coating Reagent 3, 1:200 Coating Reagent 8 (Caliper Life Sciences, Hopkinton, Mass.), 10 mM EDTA and 5% DMSO.
PIM reactions were carried out in a final volume of 10 μL per well in a 384-well plate. […] After 90 minutes of incubation at room temperature, the phosphorylation reaction was stopped by the addition of 10 μL Termination Buffer. The product and substrate in each independent reaction were separated on a 12-sipper microfluidic chip (Caliper Life Sciences, Hopkinton, Mass.) run on a Caliper LC3000® (Caliper Life Sciences, Hopkinton, Mass.). The separation of product and substrate was optimized by choosing voltages and pressure using Caliper's Optimizer software (Hopkinton, Mass.). […] Substrate conversion was calculated from the electropherogram using HTS Well Analyzer software (Caliper Life Sciences, Hopkinton, Mass.). Ki values for the test compound were calculated.

PIM3 = PIM3 (Homo sapiens (Human), UniProt Q86V86); assay: Pim kinase binding activity, Caliper LC3000 microfluidic peptide phosphorylation assay, PIM3; conditions: 10 μM ATP, 90 min, room temperature; read-out: PIM3 LC3K (KI)
Outline: (§1)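 Read-out is microfluidic electrophoretic separation of phosphorylated from unphosphorylated fluorescent Pim peptide, with Ki calculated from conversion. Reactions ran 90 min at room temperature in HEPES pH 7.2 containing MgCl2, Tween 20 and DTT, ended by EDTA-containing buffer.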

PIM2 = PIM2 (Homo sapiens (Human), UniProt Q9P1W9); assay: Pim kinase binding activity, Caliper LC3000 microfluidic peptide phosphorylation assay, PIM2; conditions: 10 μM ATP, 90 min, room temperature; read-out: PIM2 LC3K (KI)
PIM2, sequence (Q9P1W9 whole entry): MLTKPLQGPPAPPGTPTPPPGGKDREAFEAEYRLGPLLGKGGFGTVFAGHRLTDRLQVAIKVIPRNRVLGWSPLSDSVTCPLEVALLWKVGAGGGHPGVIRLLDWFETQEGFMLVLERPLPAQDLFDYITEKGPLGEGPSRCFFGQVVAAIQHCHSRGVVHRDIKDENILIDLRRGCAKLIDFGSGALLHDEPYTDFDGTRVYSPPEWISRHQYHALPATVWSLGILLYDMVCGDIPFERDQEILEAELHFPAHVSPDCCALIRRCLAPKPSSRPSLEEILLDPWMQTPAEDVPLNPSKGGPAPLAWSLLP
Outline: as §1

PIM1, sequence (P11309 whole entry): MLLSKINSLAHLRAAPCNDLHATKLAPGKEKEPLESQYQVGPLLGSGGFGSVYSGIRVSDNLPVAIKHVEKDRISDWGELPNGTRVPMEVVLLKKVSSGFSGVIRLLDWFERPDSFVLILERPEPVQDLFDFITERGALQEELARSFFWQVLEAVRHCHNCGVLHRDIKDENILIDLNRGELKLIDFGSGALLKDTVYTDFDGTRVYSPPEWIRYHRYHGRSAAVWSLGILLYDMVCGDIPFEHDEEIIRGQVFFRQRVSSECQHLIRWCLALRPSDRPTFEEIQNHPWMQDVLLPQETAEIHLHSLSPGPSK

Compound	Ki (PIM1) [nM]	Ki (PIM3) [nM]	Ki (PIM2) [nM]
Cn1cc(-c2cc3c(cn2)cnn3-c2cccc(C3CCCNCC3)n2)cn1 (stereo not drawn) [Compound 235, 1-(6-(azepan-4-yl)pyridin-2-yl)-6-(1-methyl-1H-pyrazol-4-yl)-1H-pyrazolo[4,3-c]pyridine]	1.55	0.806	16.5
Cn1cc(-c2cc3c(cn2)cnn3-c2cccc(C3(F)CCCNCC3)n2)cn1 (stereo not drawn) [Compound 236, 1-(6-(4-Fluoroazepan-4-yl)pyridin-2-yl)-6-(1-methyl-1H-pyrazol-4-yl)-1H-pyrazolo[4,3-c]pyridine]	0.715	0.37	8.6
COc1ccc(-n2ncc3cnc(-c4cnn(CC(F)(F)F)c4)cc32)nc1N1CCNC[C@H](O)C1 [Compound 237, (S)-1-(3-Methoxy-6-(6-(1-(2,2,2-trifluoroethyl)-1H-pyrazol-4-yl)-1H-pyrazolo-[4,3-c]pyridin-1-yl)pyridin-2-yl)-1,4-diazepan-6-ol]	0.31	0.587	10.1
Cc1cncc(-c2cc3c(cn2)cnn3-c2cnc(C3CC3)c(N3CCC[C@H](N)C3)n2)n1 [Compound 238, (3S)-1-[3-cyclopropyl-6-[6-(6-methylpyrazin-2-yl)pyrazolo[4,3-c]pyridin-1-yl]pyrazin-2-yl]piperidin-3-amine]	0.026	0.032	0.257
Cc1cncc(-c2cc3c(cn2)cnn3-c2cccc(N3CCCN(C4COC4)CC3)n2)n1 [Compound 240, 6-(6-methylpyrazin-2-yl)-1-(6-(4-(oxetan-3-yl)-1,4-diazepan-1-yl)pyridin-2-yl)-1H-pyrazolo[4,3-c]pyridine]	1.51	2.03	31.7
Cc1cncc(-c2cc3c(cn2)cnn3-c2cn(C)c(=O)c(N3CCC[C@H](N)C3)n2)n1 [Compound 241, (S)-3-(3-aminopiperidin-1-yl)-1-methyl-5-(6-(6-methylpyrazin-2-yl)-1H-pyrazolo[4,3-c]pyridin-1-yl)pyrazin-2(1H)-one]	3.53	0.762	45.5
Cn1cc(-c2cc3c(cn2)cnn3-c2cn(C)c(=O)c(N3CCC[C@H](N)C3)n2)cn1 [Compound 242, (S)-3-(3-Aminopiperidin-1-yl)-1-methyl-5-(6-(1-methyl-1H-pyrazol-4-yl)-1H-pyrazolo[4,3-c]pyridin-1-yl)pyrazin-2(1H)-one]	128	42.2	1600
Cn1cc(-c2cc3c(cn2)cnn3-c2cn(C)c(=O)c(N3CCC[C@@H](N)C3)n2)cn1 [Compound 243, (R)-3-(3-aminopiperidin-1-yl)-1-methyl-5-(6-(1-methyl-1H-pyrazol-4-yl)-1H-pyrazolo[4,3-c]pyridin-1-yl)pyrazin-2(1H)-one]	57.1	8.64	528
Cc1cncc(-c2cc3c(cn2)cnn3-c2ccc(C)c(N3CCC[C@H](N)C3=O)n2)n1 [Compound 245, (3S)-3-amino-1-[3-methyl-6-[6-(6-methylpyrazin-2-yl)pyrazolo[4,3-c]pyridin-1-yl]-2-pyridyl]piperidin-2-one]	5.61	2.13	52.5
C[C@]1(O)CNCCN(c2cccc(-n3ncc4cnc(-c5cnn(CC(F)(F)F)c5)cc43)n2)C1 [Compound 248, (S)-6-Methyl-1-(6-(6-(1-(2,2,2-trifluoroethyl)-1H-pyrazol-4-yl)-1H-pyrazolo[4,3-c]-pyridin-1-yl)pyridin-2-yl)-1,4-diazepan-6-ol]	1.64	3.36	22.1
NC1CN(c2cccc(-n3ncc4cnc(-c5cnn(CC(F)(F)F)c5)cc43)n2)C1 [Compound 258, 1-(6-(6-(1-(2,2,2-Trifluoroethyl)-1H-pyrazol-4-yl)-1H-pyrazolo[4,3-c]pyridin-1-yl)pyridin-2-yl)azetidin-3-amine]	0.514	1.14	8.18

More lines, now with the values ahead:

Ki (PIM1) [nM]	Ki (PIM3) [nM]	Ki (PIM2) [nM]	Compound
2.16	3.09	16.8	C[C@@]1(O)CNCCN(c2cccc(-n3ncc4cnc(-c5cnn(CC(F)(F)F)c5)cc43)n2)C1 [Compound 249, (R)-6-Methyl-1-(6-(6-(1-(2,2,2-trifluoroethyl)-1H-pyrazol-4-yl)-1H-pyrazolo[4,3-c]-pyridin-1-yl)pyridin-2-yl)-1,4-diazepan-6-ol]
3.89	0.743	24.8	Cc1cncc(-c2cc3c(cn2)cnn3-c2cc(C3COC3)cc(N3CCC[C@H](N)C3)n2)n1 [Compound 250, (S)-1-(6-(6-(6-methylpyrazin-2-yl)-1H-pyrazolo[4,3-c]pyridin-1-yl)-4-(oxetan-3-yl)pyridin-2-yl)piperidin-3-amine]
48.8	31.6	181	COc1ccc(-n2ncc3cnc(-c4cncc(C)n4)cc32)nc1N1CCCNC1=O [Compound 251, 1-[3-methoxy-6-[6-(6-methylpyrazin-2-yl)pyrazolo[4,3-c]pyridin-1-yl]-2-pyridyl]hexahydropyrimidin-2-one]
5.67	3.16	35	Cc1cncc(-c2cc3c(cn2)cnn3-c2cccc(N3CCCNC3=O)n2)n1 [Compound 252, 1-[6-[6-(6-methylpyrazin-2-yl)pyrazolo[4,3-c]pyridin-1-yl]-2-pyridyl]hexahydropyrimidin-2-one]
2.52	1.78	45.1	Cn1cc(-c2cc3c(cn2)cnn3-c2cccc(N3CC(O)C3)n2)cn1 [Compound 253, 1-(6-(6-(1-Methyl-1H-pyrazol-4-yl)-1H-pyrazolo[4,3-c]pyridin-1-yl)pyridin-2-yl)azetidin-3-ol]
30.6	6.24	718	Cn1cc(-c2cc3c(cn2)cnn3-c2cn(C)c(=O)c(N3CCNCC(O)C3)n2)cn1 (stereo not drawn) [Compound 254, 3-(6-Hydroxy-1,4-diazepan-1-yl)-1-methyl-5-(6-(1-methyl-1H-pyrazol-4-yl)-1H-pyrazolo[4,3-c]pyridin-1-yl)pyrazin-2(1H)-one]
0.876	1.58	9.62	OC1CN(c2cccc(-n3ncc4cnc(-c5cnn(CC(F)(F)F)c5)cc43)n2)C1 [Compound 255, 1-(6-(6-(1-(2,2,2-Trifluoroethyl)-1H-pyrazol-4-yl)-1H-pyrazolo[4,3-c]pyridin-1-yl)pyridin-2-yl)azetidin-3-ol]
5.58	2.02	83.2	Cn1cc(-c2cc3c(cn2)cnn3-c2cccc(N3CC(CN)C3)n2)cn1 [Compound 256, (1-(6-(6-(1-Methyl-1H-pyrazol-4-yl)-1H-pyrazolo[4,3-c]pyridin-1-yl)pyridin-2-yl)azetidin-3-yl)methanamine]
0.784	0.507	23.3	Cn1cc(-c2cc3c(cn2)cnn3-c2cccc(N3CC(N)C3)n2)cn1 [Compound 257, 1-(6-(6-(1-Methyl-1H-pyrazol-4-yl)-1H-pyrazolo[4,3-c]pyridin-1-yl)pyridin-2-yl)azetidin-3-amine]
0.763	2.74	16.5	CO[C@@]1(C)CNCCN(c2cccc(-n3ncc4cnc(-c5cnn(CC(F)(F)F)c5)cc43)n2)C1 [Compound 261, (S)-1-(6-(6-Methoxy-6-methyl-1,4-diazepan-1-yl)pyridin-2-yl)-6-(1-(2,2,2-trifluoroethyl)-1H-pyrazol-4-yl)-1H-pyrazolo[4,3-c]pyridine]
1.23	1.84	12.5	NCC1CN(c2cccc(-n3ncc4cnc(-c5cnn(CC(F)(F)F)c5)cc43)n2)C1 [Compound 262, (1-(6-(6-(1-(2,2,2-Trifluoroethyl)-1H-pyrazol-4-yl)-1H-pyrazolo[4,3-c]pyridin-1-yl)pyridin-2-yl)azetidin-3-yl)methanamine]
2.94	6.37	58.2	CO[C@]1(C)CNCCN(c2cccc(-n3ncc4cnc(-c5cnn(CC(F)(F)F)c5)cc43)n2)C1 [Compound 264, (R)-1-(6-(6-Methoxy-6-methyl-1,4-diazepan-1-yl)pyridin-2-yl)-6-(1-(2,2,2-trifluoroethyl)-1H-pyrazol-4-yl)-1H-pyrazolo[4,3-c]pyridine]
0.941	0.206	8.79	Cc1cncc(-c2cc3c(cn2)cnn3-c2cccc(C3CNCCC3O)n2)n1 (stereo not drawn) [Compound 265, 3-[6-[6-(6-methylpyrazin-2-yl)pyrazolo[4,3-c]pyridin-1-yl]-2-pyridyl]piperidin-4-ol]
1.1	1.21	29.3	Cn1cc(-c2cc3c(cn2)cnn3-c2cccc(N3CC4(CCCCN4)C3)n2)cn1 [Compound 266, 1-(6-(2,5-Diazaspiro[3.5]nonan-2-yl)pyridin-2-yl)-6-(1-methyl-1H-pyrazol-4-yl)-1H-pyrazolo[4,3-c]pyridine]
